Source: patent publication US20250074910A1, “MENIN INHIBITOR AND USE THEREOF” (HITGEN INC., priority 2021, published 2025)

Key:
[1] = target: Menin/MLL-4-43 peptide interaction (Homo sapiens (Human), UniProt O00255); assay: Menin-MLL interaction inhibitory activity assay (fluorescence polarization competition); type: binding; settings: FITC-MLL4-43-peptide, Menin recombinant protein
Method: Test Example 1: Menin-MLL Interaction Inhibitory Activity Assay
The inhibition of Menin/MLL-4-43 peptide interaction by small molecule inhibitors was quantitatively detected by fluorescence polarization competition assay. The experiment was performed in a 384-well plate (Corning, Cat #3575) using a reaction buffer consisting of 50 mM Tris, pH 7.5, 50 mM NaCl, and 1 mM DTT. A 40 μL reaction system included 10 μL of 8 nM Menin recombinant protein and 10 μL of the test compound at different concentrations. The compound was pre-incubated with Menin protein for 15 min, and then 20 μL of 10 nM FITC-MLL4-43-peptide was added. After incubation on a shaker at 25° C. for 60 min, the fluorescence polarization signal (FP 485 520 520) was read using BMG PHERAStar detection. The experimental data was analyzed and processed by GraphPad Prism 6 software to obtain the IC50 value. The control compound 1 was prepared by referring to the method of Example 64 in WO2017214367.

MV4-11 = assay: Cell proliferation inhibition (CellTiter-Glo), MV4-11; type: cell-based; settings: MV4-11 cells
Method: (§1) Test Example 2: Test of the Inhibitory Ability of Menin-MLL Interaction Inhibitors on Cell Proliferation
(§2) The inhibitory ability of the compounds of the present disclosure on the proliferation of tumor cell lines (including cell lines containing MLL fusion protein such as MV4-11, MOLM-13, THP-1 and NOMO-1, control cell lines without MLL fusion protein such as HL-60, K562 and MOLM-16, and cell lines containing NPM1 mutation such as OCI-AML3) was evaluated by using the cell viability analysis method. The cells were plated in 96-well plates at a certain concentration (e.g., 5,000-20,000 cells/well), and then an equal volume of culture medium containing 2 times the final concentration of the test compound (the final concentration ranging 10 from 1 nM to 10 μM) was added. The plates were placed in an incubator and cultured at 37° C. and 5% CO2 for 72-168 h. Before the test, an equal volume of CellTiter-Glo® Luminescent reagent was added, and the plate was incubated at room temperature for 10 min before detection using an ELISA reader (BMG LABTECH). The data were analyzed using GraphPad Prism software to obtain the IC50 value and compound fitting curve. The control compound 1 was prepared by referring to the method of Example 64 in WO2017214367.

OCI-AML3 = assay: Cell proliferation inhibition (CellTiter-Glo), OCI-AML3 (NPM1 mutation); type: cell-based; settings: OCI-AML3 cells
Method: as §1, §2

Chain of Menin/MLL-4-43 peptide interaction (O00255 whole entry, species assumed): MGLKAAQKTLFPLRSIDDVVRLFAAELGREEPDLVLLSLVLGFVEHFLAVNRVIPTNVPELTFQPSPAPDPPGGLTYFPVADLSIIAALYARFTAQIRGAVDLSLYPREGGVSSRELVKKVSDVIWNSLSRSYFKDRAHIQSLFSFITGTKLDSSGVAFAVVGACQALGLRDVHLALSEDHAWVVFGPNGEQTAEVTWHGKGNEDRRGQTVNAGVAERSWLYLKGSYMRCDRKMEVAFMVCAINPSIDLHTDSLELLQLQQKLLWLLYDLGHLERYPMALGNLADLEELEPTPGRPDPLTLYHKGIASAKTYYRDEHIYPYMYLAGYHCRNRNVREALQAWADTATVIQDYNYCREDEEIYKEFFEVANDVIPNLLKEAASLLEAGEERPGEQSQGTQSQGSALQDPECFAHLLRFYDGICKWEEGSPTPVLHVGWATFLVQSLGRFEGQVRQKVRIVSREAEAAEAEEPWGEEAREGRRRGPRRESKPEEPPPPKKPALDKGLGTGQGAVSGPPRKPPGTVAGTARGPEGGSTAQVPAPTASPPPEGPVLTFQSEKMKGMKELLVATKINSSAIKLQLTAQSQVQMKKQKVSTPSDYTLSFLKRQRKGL

Row | SMILES | IC50 [1] | GI50 (MV4-11; Homo sapiens, MV4-11, 72 h) | other results
1 | CC(C)N(C(=O)c1cc(F)ccc1Oc1nncnc1N1CC2(CCN(CC3CC4CCC3CC43CCC(=O)N3)CC2)C1)C1CC1 (centres unmarked) [Example 16-2] | 163 nM | – | –
2 | CCN(C(=O)c1cc(F)ccc1Oc1cncnc1N1CC2(CCN(CC3CC4CCC3CC43CCC(=O)N3)CC2)C1)C(C)C (single isomer, unassigned) [Example 4-1] | 12.1 nM | – | GI50 (MV4-11; 72 h): 55 nM
3 | CC(C)N(C(=O)c1cc(F)ccc1Oc1nncnc1N1CC2(CCN(CC3CC4CCC3CC43COC(=O)N3)CC2)C1)C(C)C (single isomer, unassigned) [Example 52-1] | 135 nM | – | –
4 | CCN(C(=O)c1cc(F)ccc1Oc1cncnc1N1CC2(CCN(CC3CC4CCC3CC43COC(=O)N3)CC2)C1)C(C)C (single isomer, unassigned) [Example 50-2] | 39.9 nM | – | GI50 (MV4-11; 72 h): 69.1 nM
5 | CC(C)N(C(=O)c1cc(F)ccc1Oc1nncnc1N1CC2(CCN(CC3CC4CCC3CC43CCC(=O)N3)CC2)C1)C(C)C (centres unmarked) [Example 15-1] | 90.9 nM | – | –
6 | CC(C)N(C(=O)c1cc(F)ccc1Oc1nncnc1N1CC2(CCN(CC3CC4CCC3CC43CCC(=O)N3)CC2)C1)C(C)C (single isomer, unassigned) [Example 15-1b] | 142 nM | – | –
7 | CC(C)N(C(=O)c1cc(F)ccc1Oc1nncnc1N1CC2(CCN(CC3CC4CCC3CC43COC(=O)N3)CC2)C1)C(C)C (single isomer, unassigned) [Example 52-1b] | 38.7 nM | – | GI50 (OCI-AML3; Homo sapiens, OCI-AML-3, 168 h): 40 nM; GI50 (MV4-11; 72 h): 11.9 nM
8 | CC1C[C@]2(CC[C@@H](CN3CCC4(CC3)CN(c3ncncc3Oc3ccc(F)cc3C(=O)N(C(C)C)C(C)C)C4)CC2)NC1=O (some centres unmarked) [Example 39] | 23.8 nM | 20 nM | –
9 | [2H]C([2H])([2H])C1(C([2H])([2H])[2H])C[C@]2(CC[C@@H](CN3CCC4(CC3)CN(c3ncnnc3Oc3ccc(F)cc3C(=O)N(C(C)C)C(C)C)C4)CC2)NC1=O [Example 34] | 6.4 nM | 12.6 nM | –
10 | [2H]C([2H])([2H])C1(C([2H])([2H])[2H])C[C@]2(CC[C@@H](CN3CCC4(CC3)CN(c3ncnnc3Oc3ccc(F)cc3C(=O)N(CC)C(C)C)C4)CC2)NC1=O [Example 33] | 8.4 nM | 20.5 nM | –
11 | CC(C)N(C(=O)c1cc(F)ccc1Oc1cncnc1N1CC2(CCN(CC3CC4CCC3CC43CCC(=O)N3)CC2)C1)C(C)C (single isomer, unassigned) [Example 13-2a] | 16.5 nM | – | GI50 (MV4-11; 72 h): 25.2 nM
12 | CC(C)N(C(=O)c1cc(F)ccc1Oc1cncnc1N1CC2(CCN(CC3CC4CCC3CC43COC(=O)N3)CC2)C1)C(C)C (single isomer, unassigned) [Example 51-1b] | 46.7 nM | 16.1 nM | GI50 (OCI-AML3; Homo sapiens, OCI-AML-3, 168 h): 20.3 nM
13 | C=C1C[C@]2(CC[C@@H](CN3CCC4(CC3)CN(c3ncncc3Oc3ccc(F)cc3C(=O)N(C(C)C)C(C)C)C4)CC2)NC1=O [Example 62] | 19.9 nM | 34.8 nM | –
14 | CCN(C(=O)c1cc(F)ccc1Oc1cncnc1N1CC2(CCN(CC3CC4CCC3CC43CCC(=O)N3)CC2)C1)C(C)C (single isomer, unassigned) [Example 3] | 24 nM | 94.7 nM | –
15 | CC(C)N(C(=O)c1cc(F)ccc1Oc1cncnc1N1CC2(CCN(CC3CC4CCC3CC43COC(=O)N3)CC2)C1)C(C)C (single isomer, unassigned) [Example 51-2b] | 141 nM | – | –
16 | CCN(C(=O)c1cc(F)ccc1Oc1cncnc1N1CC2(CCN(CC3CC4CCC3CC43COC(=O)N3)CC2)C1)C(C)C (single isomer, unassigned) [Example 50-1] | 36 nM | 74.4 nM | –
17 | CC(C)N(C(=O)c1cc(F)ccc1Oc1nncnc1N1CC2(CCN(C[C@H]3CC[C@@]4(CCC(=O)N4)CC3)CC2)C1)C1CC1 [Example 11] | 167 nM | – | –
18 | CC(C)N(C(=O)c1cc(F)ccc1Oc1cncnc1N1CC2(CCN(CC3CC4CCC3CC43COC(=O)N3)CC2)C1)C(C)C (single isomer, unassigned) [Example 51-2a] | 70.7 nM | – | GI50 (OCI-AML3; 168 h): 31.5 nM; GI50 (MV4-11; 72 h): 11.7 nM

Row | SMILES | IC50 [1] | GI50 (MV4-11; Homo sapiens, MV4-11, 72 h) | other results
19 | CC(C)N(C)C(=O)c1cc(F)ccc1Oc1nncnc1N1CC2(CCN(C[C@H]3CC[C@]4(CC3)CC(C)(C)C(=O)N4)CC2)C1 [Example 28] | 134 nM | – | –
20 | COC[C@@H]1C[C@]2(CC[C@@H](CN3CCC4(CC3)CN(c3ncncc3Oc3ccc(F)cc3C(=O)N(C(C)C)C(C)C)C4)CC2)NC1=O [Example 36] | 4.4 nM | 13.1 nM | –
21 | CCN(C(=O)c1cc(F)ccc1Oc1cncnc1N1CC2(CCN(C[C@H]3CC[C@]4(CC3)C[C@@H](COC)C(=O)N4)CC2)C1)C(C)C [Example 35] | 3.6 nM | 11.7 nM | –
22 | CCN(C(=O)c1cc(F)ccc1Oc1nncnc1N1CC2(CCN(C[C@H]3CC[C@]4(CC3)CC(C)C(=O)N4)CC2)C1)C(C)C (single isomer, unassigned) [Example 40-2] | 34.9 nM | – | GI50 (MV4-11; 72 h): 82.8 nM
23 | CCN(C(=O)c1cc(F)ccc1Oc1cncnc1N1CC2(CCN(CC3CC4CCC3CC43CCC(=O)N3)CC2)C1)C(C)C (single isomer, unassigned) [Example 4] | 29 nM | – | GI50 (MV4-11; 72 h): 61 nM
24 | CC(C)N(C(=O)c1cc(F)ccc1Oc1cncnc1N1CC2(CCN(CC3CC4CCC3CC43CCC(=O)N3)CC2)C1)C(C)C (single isomer, unassigned) [Example 13-2b] | 142 nM | – | GI50 (MV4-11; 72 h): 153 nM
25 | CC(C)N(C(=O)c1cc(F)ccc1Oc1cncnc1N1CC2(CCN(CC3CC4CCC3CC43CCC(=O)N3)CC2)C1)C(C)C (single isomer, unassigned) [Example 13-1a] | 177 nM | – | –
26 | CCN(C(=O)c1cc(F)ccc1Oc1cncnc1N1CC2(CCN(CC3CC4CCC3CC43CCC(=O)N3)CC2)C1)C(C)C (single isomer, unassigned) [Example 3-2] | 113 nM | – | GI50 (MV4-11; 72 h): 86.1 nM
27 | CCN(C(=O)c1cc(F)ccc1Oc1cncnc1N1CC2(CCN(CC3CC4CCC3CC43CCC(=O)N3)CC2)C1)C(C)C (single isomer, unassigned) [Example 4-2] | 60.7 nM | – | –
28 | CC(C)N(C(=O)c1cc(F)ccc1Oc1nncnc1N1CC2(CCN(CC3CC4CCC3CC43CCC(=O)N3)CC2)C1)C1CC1 (centres unmarked) [Example 16-1] | – | 130 nM | –
29 | CC1C[C@]2(CC[C@@H](CN3CCC4(CC3)CN(c3ncnnc3Oc3ccc(F)cc3C(=O)N(C(C)C)C(C)C)C4)CC2)NC1=O (some centres unmarked) [Example 41-2] | 22.4 nM | – | –
30 | CC(C)N(C(=O)c1cc(F)ccc1Oc1cncnc1N1CC2(CCN(CC3CC4CCC3CC43CCC(=O)N3)CC2)C1)C(C)C (single isomer, unassigned) [Example 13-2] | 24.9 nM | – | GI50 (MV4-11; 72 h): 49.7 nM
31 | CC(C)N(C(=O)c1cc(F)ccc1Oc1nncnc1N1CC2(CCN(CC3CC4CCC3CC43COC(=O)N3)CC2)C1)C(C)C (single isomer, unassigned) [Example 52-2b] | 198 nM | – | GI50 (OCI-AML3; 168 h): 50.6 nM
32 | [2H]C([2H])([2H])C1C[C@]2(CC[C@@H](CN3CCC4(CC3)CN(c3ncnnc3Oc3ccc(F)cc3C(=O)N(CC)C(C)C)C4)CC2)NC1=O (single isomer, unassigned) [Example 42-2] | 44.5 nM | – | –
33 | CC(C)N(C(=O)c1cc(F)ccc1Oc1nncnc1N1CC2(CCN(CC3CC4CCC3CC43COC(=O)N3)CC2)C1)C(C)C (single isomer, unassigned) [Example 52-2] | 93.9 nM | – | –
34 | CCN(C(=O)c1cc(F)ccc1Oc1nncnc1N1CC2(CCN(CC3CC4CCC3CC43CCC(=O)N3)CC2)C1)C(C)C (centres unmarked) [Example 14-1] | 103 nM | – | –
35 | CC(C)N(C(=O)c1cc(F)ccc1Oc1cncnc1N1CC2(CCN(CC3CC4CCC3CC43CCC(=O)N3)CC2)C1)C(C)C (single isomer, unassigned) [Example 13-1] | 21.3 nM | 82.6 nM | –
